In ChEMBL document CHEMBL1201862, “PubChem BioAssay data set” (2004):
Activity calls are given as the source filed them.

How the values were obtained:
[1] = molecular target: T1, Voltage-gated N-type calcium channel alpha-1B subunit/Amyloid beta A4 precursor protein-binding family A member 1 (Homo sapiens, UniProt Q00975+Q02410); assay type: protein assay
[2] = molecular target: T2, Mannose-6-phosphate isomerase (Homo sapiens, UniProt P34949); experiment: MPI enzyme activity inhibition – biochemical, fluorescence intensity, coupled assay, primary screen (AID 1209)
T2 sequence (P34949 whole entry): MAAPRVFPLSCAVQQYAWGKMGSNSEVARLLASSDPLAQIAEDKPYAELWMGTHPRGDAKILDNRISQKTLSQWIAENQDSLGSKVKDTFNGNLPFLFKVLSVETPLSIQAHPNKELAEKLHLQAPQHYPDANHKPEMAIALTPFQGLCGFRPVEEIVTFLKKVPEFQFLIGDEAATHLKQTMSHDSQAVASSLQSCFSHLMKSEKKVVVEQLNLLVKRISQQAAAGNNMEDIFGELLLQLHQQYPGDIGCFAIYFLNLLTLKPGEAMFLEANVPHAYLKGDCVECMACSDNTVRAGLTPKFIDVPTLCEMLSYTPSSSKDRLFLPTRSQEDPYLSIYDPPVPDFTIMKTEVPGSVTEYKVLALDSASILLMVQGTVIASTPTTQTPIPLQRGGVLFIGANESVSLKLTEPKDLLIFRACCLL

[3] = molecular target: T3, RNA-binding protein pos-1 (Caenorhabditis elegans, UniProt G5EF15); experiment: disruptors of C. elegans POS-1 RNA interaction – biochemical, fluorescence polarization, dose response (AID 1964);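 further: purified POS-1 fused to maltose binding protein made in E. coli; potency of compounds blocking POS-1 binding to fluorescent RNA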
T3 sequence (G5EF15 whole entry): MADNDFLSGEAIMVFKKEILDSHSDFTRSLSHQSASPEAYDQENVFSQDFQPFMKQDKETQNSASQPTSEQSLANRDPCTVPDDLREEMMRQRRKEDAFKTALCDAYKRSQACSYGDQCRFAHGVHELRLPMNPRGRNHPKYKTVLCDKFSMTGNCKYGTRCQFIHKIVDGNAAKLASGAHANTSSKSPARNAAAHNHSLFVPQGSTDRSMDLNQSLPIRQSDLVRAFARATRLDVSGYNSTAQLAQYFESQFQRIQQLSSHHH

[4] = molecular target: T1, Voltage-gated N-type calcium channel alpha-1B subunit/Amyloid beta A4 precursor protein-binding family A member 1; assay type: protein assay; remark: listed apart in the source
[5] = molecular target: T4, Zinc finger protein mex-5 (Caenorhabditis elegans, UniProt Q9XUB2); experiment: potency of MEX-5 RNA-binding blockers – biochemical, C. elegans, fluorescence polarization, dose response (AID 1960)
T4 sequence (Q9XUB2 whole entry): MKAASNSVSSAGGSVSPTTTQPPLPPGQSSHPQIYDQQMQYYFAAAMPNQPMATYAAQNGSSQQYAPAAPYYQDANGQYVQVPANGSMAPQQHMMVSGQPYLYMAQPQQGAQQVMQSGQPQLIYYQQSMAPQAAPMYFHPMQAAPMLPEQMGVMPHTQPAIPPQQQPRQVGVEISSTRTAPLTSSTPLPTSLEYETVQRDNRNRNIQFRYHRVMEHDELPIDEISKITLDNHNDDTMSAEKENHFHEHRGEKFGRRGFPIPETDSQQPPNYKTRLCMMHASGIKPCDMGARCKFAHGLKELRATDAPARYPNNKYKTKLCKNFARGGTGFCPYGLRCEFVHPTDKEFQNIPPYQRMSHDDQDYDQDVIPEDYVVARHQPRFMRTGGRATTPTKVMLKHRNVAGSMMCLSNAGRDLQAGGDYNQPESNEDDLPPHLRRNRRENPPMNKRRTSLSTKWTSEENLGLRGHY

Cytochrome P450 2C19 = Cytochrome P450 2C19 (Homo sapiens, UniProt P33261); experiment: qHTS Assay for Inhibitors and Substrates of Cytochrome P450 2C19. [Related pubchem assays: 410 ]; assay type: ADME; conditions: read-out: Potency
Cytochrome P450 3A4 = Cytochrome P450 3A4 (Homo sapiens, UniProt P08684); conditions: Potency;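 further: confirmatory qHTS run detecting inhibitors and substrates of CYP3A4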
[6] = molecular target: Ubiquitin carboxyl-terminal hydrolase BAP1 (Homo sapiens, UniProt Q92560); experiment: inhibition of BAP1 ubiquitin hydrolase activity – biochemical, dose response (AID 714); assay type: functional
[7] = molecular target: T2, Mannose-6-phosphate isomerase; experiment: MPI inhibition at elevated mannose 6-phosphate – biochemical, fluorescence intensity, high mannose 6-phosphate, primary screen (AID 1220)
[8] = M. tuberculosis growth inhibition, HTS (AID 449762); assay type: functional
[9] = molecular target: Arf-GAP with SH3 domain, ANK repeat and PH domain-containing protein 1 (Homo sapiens, UniProt Q9ULH1); assay type: functional;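 further: biochemical fluorescence polarization dose–response screen measuring inhibition of ASAP1; ASAP1 GAP domain stimulating GTP hydrolysis by truncated human ARF1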
Chain of Arf-GAP with SH3 domain, ANK repeat and PH domain-containing protein 1 (Q9ULH1 whole entry, the tested form may be a part): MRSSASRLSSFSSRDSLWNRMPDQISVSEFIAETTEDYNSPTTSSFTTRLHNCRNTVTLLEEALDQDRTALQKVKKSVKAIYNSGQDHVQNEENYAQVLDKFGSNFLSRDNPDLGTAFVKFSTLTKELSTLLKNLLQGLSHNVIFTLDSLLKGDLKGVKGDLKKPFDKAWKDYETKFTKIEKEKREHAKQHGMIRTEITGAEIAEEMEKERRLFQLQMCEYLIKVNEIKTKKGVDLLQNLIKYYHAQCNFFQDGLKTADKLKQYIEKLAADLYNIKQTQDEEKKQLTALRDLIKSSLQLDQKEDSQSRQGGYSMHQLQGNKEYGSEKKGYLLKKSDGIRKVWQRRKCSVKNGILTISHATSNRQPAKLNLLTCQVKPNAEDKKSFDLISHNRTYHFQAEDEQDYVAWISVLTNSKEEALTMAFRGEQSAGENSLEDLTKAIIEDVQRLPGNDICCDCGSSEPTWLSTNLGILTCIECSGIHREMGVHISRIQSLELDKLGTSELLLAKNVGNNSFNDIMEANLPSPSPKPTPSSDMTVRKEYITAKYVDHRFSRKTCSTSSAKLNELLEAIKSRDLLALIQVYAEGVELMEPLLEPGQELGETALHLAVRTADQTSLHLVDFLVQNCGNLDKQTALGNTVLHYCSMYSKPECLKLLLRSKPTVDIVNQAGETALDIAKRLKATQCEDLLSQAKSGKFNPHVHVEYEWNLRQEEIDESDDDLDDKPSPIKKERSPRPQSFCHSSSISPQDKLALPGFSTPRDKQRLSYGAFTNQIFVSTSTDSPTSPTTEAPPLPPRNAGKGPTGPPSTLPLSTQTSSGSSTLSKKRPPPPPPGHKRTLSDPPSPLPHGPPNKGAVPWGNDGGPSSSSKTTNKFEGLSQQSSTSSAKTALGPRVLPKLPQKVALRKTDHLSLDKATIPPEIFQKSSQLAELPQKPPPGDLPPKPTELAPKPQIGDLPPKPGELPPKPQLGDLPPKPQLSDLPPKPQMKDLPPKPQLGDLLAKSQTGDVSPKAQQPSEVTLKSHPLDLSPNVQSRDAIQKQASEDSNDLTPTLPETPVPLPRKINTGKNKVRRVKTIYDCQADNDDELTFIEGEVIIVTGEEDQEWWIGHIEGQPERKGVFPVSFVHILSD

[10] = molecular target: Protein-tyrosine kinase 2-beta (Homo sapiens, UniProt Q14289);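 further: potency of inhibitors of PYK2 kinase phosphorylation of poly-GT substrate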
[11] = molecular target: T5, Carboxy-terminal domain RNA polymerase II polypeptide A small phosphatase 1 (Homo sapiens, UniProt Q9GZU7); experiment: CTDSP1 inhibitors, concentration-response, biochemical, absorbance readout, ultra-high-throughput screen actives (AID 540297); assay type: functional
T5 sequence (Q9GZU7 whole entry): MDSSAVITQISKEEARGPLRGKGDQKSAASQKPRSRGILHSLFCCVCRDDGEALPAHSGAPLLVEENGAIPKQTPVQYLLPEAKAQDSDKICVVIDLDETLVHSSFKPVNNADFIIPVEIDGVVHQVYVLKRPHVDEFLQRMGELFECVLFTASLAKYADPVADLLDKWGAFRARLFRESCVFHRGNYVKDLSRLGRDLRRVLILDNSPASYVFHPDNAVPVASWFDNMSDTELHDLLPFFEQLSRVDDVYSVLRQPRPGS

[12] = molecular target: T6, Replicative DNA helicase DnaB (Mycobacterium tuberculosis, UniProt P9WMR3); experiment: DnaB intein splicing inhibitors, dose response, biochemical, cell-free fluorescence (AID 449749); assay type: functional
T6 sequence (P9WMR3 whole entry): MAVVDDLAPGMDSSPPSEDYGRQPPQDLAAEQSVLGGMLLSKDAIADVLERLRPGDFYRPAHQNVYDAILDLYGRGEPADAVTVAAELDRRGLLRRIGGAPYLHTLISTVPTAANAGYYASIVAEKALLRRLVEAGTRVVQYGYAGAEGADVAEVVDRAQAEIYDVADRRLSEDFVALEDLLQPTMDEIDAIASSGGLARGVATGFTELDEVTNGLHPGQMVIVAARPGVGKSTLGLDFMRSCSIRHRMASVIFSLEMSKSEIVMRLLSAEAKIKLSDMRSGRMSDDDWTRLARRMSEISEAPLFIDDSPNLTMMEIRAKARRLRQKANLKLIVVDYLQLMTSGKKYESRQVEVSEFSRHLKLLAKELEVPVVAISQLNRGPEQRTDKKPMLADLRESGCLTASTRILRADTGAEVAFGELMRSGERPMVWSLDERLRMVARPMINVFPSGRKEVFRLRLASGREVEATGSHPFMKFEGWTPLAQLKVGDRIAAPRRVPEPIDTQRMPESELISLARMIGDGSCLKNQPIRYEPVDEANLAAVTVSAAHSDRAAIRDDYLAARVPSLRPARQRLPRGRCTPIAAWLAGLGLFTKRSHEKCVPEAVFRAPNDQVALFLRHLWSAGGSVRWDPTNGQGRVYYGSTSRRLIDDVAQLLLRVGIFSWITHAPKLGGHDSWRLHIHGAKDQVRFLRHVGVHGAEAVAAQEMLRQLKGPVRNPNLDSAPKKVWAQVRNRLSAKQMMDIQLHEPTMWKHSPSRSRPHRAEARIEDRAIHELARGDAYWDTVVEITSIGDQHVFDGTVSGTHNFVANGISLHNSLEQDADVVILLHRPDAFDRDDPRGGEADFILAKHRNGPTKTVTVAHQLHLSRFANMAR

Protein RecA = molecular target: T7, Protein RecA (Mycobacterium tuberculosis, UniProt P9WHJ3); experiment: Fluorescence Cell-Free Homogeneous Dose Retest to Identify Inhibitors of RecA-Intein Splicing Activity. [Related pubchem assays (depositor defined):AID2097, AID2223, AID489010, AID492950]; assay type: functional
T7 sequence (P9WHJ3 whole entry): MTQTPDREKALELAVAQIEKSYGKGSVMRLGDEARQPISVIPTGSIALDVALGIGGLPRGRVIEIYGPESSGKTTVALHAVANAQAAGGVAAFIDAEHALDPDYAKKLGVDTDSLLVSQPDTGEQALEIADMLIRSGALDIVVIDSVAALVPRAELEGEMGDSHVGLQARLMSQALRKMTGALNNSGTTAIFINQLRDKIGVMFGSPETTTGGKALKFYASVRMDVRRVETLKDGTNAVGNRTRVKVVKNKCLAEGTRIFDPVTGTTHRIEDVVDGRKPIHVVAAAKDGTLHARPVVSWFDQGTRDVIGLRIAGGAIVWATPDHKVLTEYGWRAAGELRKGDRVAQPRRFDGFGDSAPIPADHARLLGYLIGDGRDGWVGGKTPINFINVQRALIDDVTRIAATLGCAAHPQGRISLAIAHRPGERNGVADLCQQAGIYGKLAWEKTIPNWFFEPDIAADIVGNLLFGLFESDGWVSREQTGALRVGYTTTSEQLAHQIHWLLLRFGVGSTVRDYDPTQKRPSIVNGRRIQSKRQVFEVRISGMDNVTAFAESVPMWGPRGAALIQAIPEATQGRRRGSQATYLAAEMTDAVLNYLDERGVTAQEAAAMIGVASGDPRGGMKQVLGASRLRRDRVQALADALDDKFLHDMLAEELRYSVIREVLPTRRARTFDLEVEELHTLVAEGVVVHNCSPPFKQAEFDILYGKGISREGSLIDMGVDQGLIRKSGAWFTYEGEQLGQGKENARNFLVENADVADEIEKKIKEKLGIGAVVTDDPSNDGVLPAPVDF

Bcl-2-like protein 1 = Bcl-2-like protein 1 (Homo sapiens, UniProt Q07817); experiment: blockers of BCLXL peptide binding – biochemical, fluorescence polarization, 1536-well, selectivity assay for MCL1 inhibitor project, dose response (AID 2218)
Chain of Bcl-2-like protein 1 (Q07817 whole entry): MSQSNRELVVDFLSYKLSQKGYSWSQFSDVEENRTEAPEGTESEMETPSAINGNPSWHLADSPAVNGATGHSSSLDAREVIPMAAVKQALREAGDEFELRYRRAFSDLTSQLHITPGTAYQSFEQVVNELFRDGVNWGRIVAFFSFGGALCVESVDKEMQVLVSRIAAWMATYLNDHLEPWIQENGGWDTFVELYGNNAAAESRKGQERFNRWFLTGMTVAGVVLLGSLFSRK

[13] = molecular target: Induced myeloid leukemia cell differentiation protein Mcl-1 (Homo sapiens, UniProt Q07820); experiment: blockers of MCL1 binding to BIM peptide – biochemical, fluorescence polarization, BIM-BH3 peptide, 1536-well, dose response (AID 2217)
[14] = Fluorescence Cell-Based Dose Response to Identify Inhibitors of Thrombin Receptor-Activating Peptide SFLLRN-Mediated P-Selectin Induction on Platelets. [Related pubchem assays: 1663 (Primary HTS), 1889 (retest at dose ), 1891 (counterscreen), 1678 (Project Summary)]; assay type: functional
[15] = PAR1 agonist-induced platelet activation inhibition – cell-based, fluorescence, flow cytometry, human platelets, dose response (AID 2511); assay type: functional
[16] = molecular target: Luciferin 4-monooxygenase (Photinus pyralis, UniProt P08659); experiment: inhibition of purified Photinus pyralis luciferase – biochemical, luminescence, dose response (AID 1891)
[17] = Luminescence Cell-Based Dose Confirmation HTS to Identify Inhibitors of Platelet Dense Granule Release. [Related pubchem assays: 1663 (Primary HTS), 1678 (Summary of Project)]; assay type: functional
[18] = molecular target: Aryl hydrocarbon receptor (Homo sapiens, UniProt P35869); experiment: Luminescence-based cell-based high throughput dose response assay for activators of the Aryl Hydrocarbon Receptor (AHR). [Related pubchem assays: 2796 (Primary screen (AHR activators in singlicate)), 2845 (Confirmation screen (AHR activators in triplicate)), 434939 (Counterscreen (PXR activators in triplicate)), 2804 (Summary (AHR activators))]; assay type: ADME
[19] = molecular target: Glyceraldehyde-3-phosphate dehydrogenase (Homo sapiens, UniProt P04406)
Bcl-2-related protein A1 [20] = molecular target: T8, Bcl-2-related protein A1 (Mus musculus, UniProt Q07440); experiment: Bfl-1 binding inhibitors, SAR follow-up, biochemical, fluorescence polarization (AID 1070)
T8 sequence (Q07440 whole entry): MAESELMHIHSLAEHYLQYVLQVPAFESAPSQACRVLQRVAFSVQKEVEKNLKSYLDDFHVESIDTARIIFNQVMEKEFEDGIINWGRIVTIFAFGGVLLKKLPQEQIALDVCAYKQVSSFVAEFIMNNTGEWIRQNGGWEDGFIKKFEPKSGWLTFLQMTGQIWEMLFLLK

Bcl-2-related protein A1 [21] = molecular target: T8, Bcl-2-related protein A1; experiment: small-molecule antagonists of Bfl-1/BH3 interaction – biochemical, TR-FRET, mouse Bfl-1, confirmation (AID 621);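 further: TR-FRET binding of GST-Bfl-1 to FITC-labelled Bid peptide via terbium antibody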
Ephrin type-A receptor 4 = Ephrin type-A receptor 4 (Mus musculus, UniProt Q03137); experiment: EphA4 ligand-binding antagonists – biochemical, colorimetric, mouse EphA4, primary screen (AID 689); assay type: functional
NADPH oxidase 1 = NADPH oxidase 1 (Homo sapiens, UniProt Q9Y5S8); experiment: Luminescence-based cell-based dose response assay to identify inhibitors of NADPH oxidase 1 (NOX1).; assay type: functional
Chain of NADPH oxidase 1 (Q9Y5S8 whole entry): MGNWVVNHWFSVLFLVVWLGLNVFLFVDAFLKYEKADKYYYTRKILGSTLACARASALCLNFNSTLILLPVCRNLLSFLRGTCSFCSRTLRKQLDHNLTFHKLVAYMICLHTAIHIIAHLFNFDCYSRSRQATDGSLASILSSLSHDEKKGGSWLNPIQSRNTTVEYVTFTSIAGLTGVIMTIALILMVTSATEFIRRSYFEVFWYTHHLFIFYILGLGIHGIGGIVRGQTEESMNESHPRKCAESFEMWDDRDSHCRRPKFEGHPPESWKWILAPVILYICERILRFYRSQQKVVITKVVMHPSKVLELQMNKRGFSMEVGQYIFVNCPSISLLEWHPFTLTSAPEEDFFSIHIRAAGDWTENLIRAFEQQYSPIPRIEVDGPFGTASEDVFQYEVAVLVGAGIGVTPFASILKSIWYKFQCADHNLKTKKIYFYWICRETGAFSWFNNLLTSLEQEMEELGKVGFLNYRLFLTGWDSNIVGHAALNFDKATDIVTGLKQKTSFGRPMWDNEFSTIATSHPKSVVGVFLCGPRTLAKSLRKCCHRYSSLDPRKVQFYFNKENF

T1 sequence (Q00975 whole entry): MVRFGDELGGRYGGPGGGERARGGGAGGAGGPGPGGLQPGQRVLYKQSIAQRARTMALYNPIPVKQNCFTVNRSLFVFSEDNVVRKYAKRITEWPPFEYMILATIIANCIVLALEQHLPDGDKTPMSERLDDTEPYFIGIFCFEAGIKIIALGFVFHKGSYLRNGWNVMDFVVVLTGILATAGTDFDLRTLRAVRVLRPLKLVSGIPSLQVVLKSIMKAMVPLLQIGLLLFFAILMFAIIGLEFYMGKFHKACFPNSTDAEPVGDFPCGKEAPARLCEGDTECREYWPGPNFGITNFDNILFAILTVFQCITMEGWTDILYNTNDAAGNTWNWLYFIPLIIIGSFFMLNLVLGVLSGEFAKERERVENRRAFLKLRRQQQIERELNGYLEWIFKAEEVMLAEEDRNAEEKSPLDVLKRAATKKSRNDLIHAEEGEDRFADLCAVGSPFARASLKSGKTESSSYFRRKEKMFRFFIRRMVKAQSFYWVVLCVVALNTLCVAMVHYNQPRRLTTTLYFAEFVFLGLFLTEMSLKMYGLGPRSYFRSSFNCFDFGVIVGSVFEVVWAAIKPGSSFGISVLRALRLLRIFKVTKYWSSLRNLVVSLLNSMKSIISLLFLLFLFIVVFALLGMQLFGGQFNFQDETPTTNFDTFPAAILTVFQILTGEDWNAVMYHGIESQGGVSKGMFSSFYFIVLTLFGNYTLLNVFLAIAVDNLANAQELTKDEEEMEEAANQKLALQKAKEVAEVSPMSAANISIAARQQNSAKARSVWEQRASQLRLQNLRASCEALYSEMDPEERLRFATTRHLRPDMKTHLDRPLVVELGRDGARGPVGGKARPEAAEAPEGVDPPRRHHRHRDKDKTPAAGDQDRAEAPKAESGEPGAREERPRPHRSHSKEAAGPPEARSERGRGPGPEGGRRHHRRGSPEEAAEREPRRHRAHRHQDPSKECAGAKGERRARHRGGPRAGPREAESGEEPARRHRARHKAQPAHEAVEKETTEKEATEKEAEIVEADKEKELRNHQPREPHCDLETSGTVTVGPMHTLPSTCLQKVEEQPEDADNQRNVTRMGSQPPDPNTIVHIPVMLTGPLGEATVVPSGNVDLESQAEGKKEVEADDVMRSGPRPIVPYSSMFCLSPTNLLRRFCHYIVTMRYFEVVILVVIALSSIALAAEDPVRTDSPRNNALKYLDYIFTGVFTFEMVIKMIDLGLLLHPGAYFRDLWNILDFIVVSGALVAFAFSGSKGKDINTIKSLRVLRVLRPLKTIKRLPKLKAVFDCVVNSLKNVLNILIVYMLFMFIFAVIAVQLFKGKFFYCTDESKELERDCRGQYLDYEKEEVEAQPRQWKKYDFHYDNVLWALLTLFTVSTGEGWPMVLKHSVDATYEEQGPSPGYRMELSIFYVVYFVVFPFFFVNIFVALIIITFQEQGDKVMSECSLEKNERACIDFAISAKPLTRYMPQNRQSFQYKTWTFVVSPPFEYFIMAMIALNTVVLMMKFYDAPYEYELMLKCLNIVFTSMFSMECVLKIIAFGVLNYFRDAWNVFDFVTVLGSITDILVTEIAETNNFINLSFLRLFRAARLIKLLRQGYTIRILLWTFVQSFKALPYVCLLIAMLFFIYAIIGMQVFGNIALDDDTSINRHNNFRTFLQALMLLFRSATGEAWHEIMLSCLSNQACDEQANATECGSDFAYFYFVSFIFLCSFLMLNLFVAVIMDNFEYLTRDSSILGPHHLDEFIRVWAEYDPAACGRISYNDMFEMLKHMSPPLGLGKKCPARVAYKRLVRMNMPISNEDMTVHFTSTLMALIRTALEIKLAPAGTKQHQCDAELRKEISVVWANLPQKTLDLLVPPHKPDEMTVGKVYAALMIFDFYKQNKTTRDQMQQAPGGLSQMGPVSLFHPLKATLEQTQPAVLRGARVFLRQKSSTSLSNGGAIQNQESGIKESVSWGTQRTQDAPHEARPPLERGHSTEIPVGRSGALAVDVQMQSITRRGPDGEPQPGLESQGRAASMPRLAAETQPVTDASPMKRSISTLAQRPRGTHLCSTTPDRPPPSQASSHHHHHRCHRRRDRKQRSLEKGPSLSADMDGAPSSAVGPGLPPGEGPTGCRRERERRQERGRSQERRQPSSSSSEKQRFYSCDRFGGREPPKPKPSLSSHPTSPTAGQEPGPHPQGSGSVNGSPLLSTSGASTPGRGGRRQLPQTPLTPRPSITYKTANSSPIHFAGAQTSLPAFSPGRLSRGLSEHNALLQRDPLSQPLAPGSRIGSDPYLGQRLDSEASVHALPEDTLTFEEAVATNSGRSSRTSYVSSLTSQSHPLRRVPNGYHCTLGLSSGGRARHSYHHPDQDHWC
T1 sequence (Q02410 whole entry): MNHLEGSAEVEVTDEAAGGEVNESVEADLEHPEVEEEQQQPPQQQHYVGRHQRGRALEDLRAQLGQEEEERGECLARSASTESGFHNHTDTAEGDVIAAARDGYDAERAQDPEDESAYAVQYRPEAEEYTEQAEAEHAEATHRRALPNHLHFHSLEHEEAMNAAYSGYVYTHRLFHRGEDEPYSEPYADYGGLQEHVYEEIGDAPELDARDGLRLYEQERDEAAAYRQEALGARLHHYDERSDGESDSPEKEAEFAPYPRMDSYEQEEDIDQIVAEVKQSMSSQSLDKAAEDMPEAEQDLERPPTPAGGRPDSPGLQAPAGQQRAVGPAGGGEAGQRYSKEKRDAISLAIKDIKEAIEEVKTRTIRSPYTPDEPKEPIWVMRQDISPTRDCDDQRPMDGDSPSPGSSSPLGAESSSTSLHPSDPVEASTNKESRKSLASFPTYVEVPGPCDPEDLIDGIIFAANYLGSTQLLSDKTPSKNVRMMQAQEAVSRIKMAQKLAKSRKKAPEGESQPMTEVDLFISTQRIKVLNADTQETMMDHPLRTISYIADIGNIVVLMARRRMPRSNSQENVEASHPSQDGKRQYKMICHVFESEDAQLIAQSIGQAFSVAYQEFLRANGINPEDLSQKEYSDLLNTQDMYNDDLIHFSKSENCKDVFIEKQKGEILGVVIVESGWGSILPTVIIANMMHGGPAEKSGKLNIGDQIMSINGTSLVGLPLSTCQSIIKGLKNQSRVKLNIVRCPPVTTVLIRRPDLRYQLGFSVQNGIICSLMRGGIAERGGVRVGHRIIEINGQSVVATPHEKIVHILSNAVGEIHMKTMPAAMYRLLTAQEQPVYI

NC1=CC(=O)c2cccc3cccc1c23
IC50 [1]: > 50 µM (inactive) | IC50 [2]: 16.7 µM (active) | EC50 [3]: 7.46 µM (inconclusive) | IC50 [4]: 12.7 µM (active) | EC50 [5]: 1.98 µM (inconclusive)

C=C/C1=C/Cc2ccccc2C(C[N+](=O)[O-])C(C(=O)OC)(C(=O)OC)C1 (centres undefined)
AC50 (Cytochrome P450 2C19): 7.94 µM (inconclusive) | AC50 (Cytochrome P450 3A4): 3.16 µM (inconclusive)

N#Cc1c(NC(=O)CCN2C(=O)c3ccccc3C2=O)oc(-c2ccccc2)c1-c1ccccc1
IC50 [6]: > 50 µM (not active)

COc1ccc(C(=O)CNc2ccc3ccccc3c2)cc1
IC50 [7]: > 50 µM (not active)

CN(C(=O)COC(=O)/C=C/c1ccc(Cl)c(Cl)c1)c1c(N)n(Cc2ccccc2)c(=O)[nH]c1=O
IC50 [8]: > 100 µM (active)

O=C(N/N=C/C=C/c1ccc([N+](=O)[O-])cc1)c1cccs1
IC50 [9]: 20.7 µM (inactive) | IC50 [10]: 6.61 µM (active) | EC50 [3]: > 300 µM (not active) | IC50 [11]: 4.28 µM (active) | EC50 [5]: 53.6 µM (active)

CC(=O)OCCCNc1cc(SCc2ccco2)c2nonc2c1[N+](=O)[O-]
AC50 [12]: 4.6 µM (active) | EC50 (Protein RecA): 3.49 µM (active) | IC50 (Bcl-2-like protein 1): > 109 µM (not active) | IC50 [13]: > 36.3 µM (not active)

O=C(Nc1cccc(NC(=O)c2ccccc2Cl)c1)c1ccco1
EC50 [14]: < 1 µM (active) | EC50 [15]: < 0.3 µM (active) | EC50 [16]: > 112 µM (not active) | EC50 [17]: 5.86 µM (active)

COc1ccc(NC(=O)c2ccc(C)cc2)c(OC)c1
EC50 [18]: 3.78 µM (active)

COC(=O)c1cc(C)nc(S(C)(=O)=O)n1
IC50 [19]: > 100 µM (not active) | IC50 (Bcl-2-related protein A1 [20]): > 100 µM (not active) | IC50 (Bcl-2-related protein A1 [21]): > 100 µM (not active)

COc1ccc(C(=O)CN2CCOCC2)cc1F
IC50 (Ephrin type-A receptor 4): > 100 µM (not active)

CC(=O)N1c2ccccc2Sc2ccccc21
IC50 (NADPH oxidase 1): 4.57 µM (active)
